Measurements: US9085540B2, “Pyrazinecarboxamide compound” (Astellas Pharma Inc., priority 2012, dated 2015)
pIC50: −log10 of the molar value.

Assays:
EGFR [T790M/L858R] = EGFR [T790M/L858R] (Homo sapiens (Human), UniProt P00533, L858R/T790M); assay: Inhibitory activity on EGFR T790M/L858R mutation kinase (LabChip peptide substrate phosphorylation); assay type: biochemical; conditions: EGFR [T790M/L858R] enzyme, 2 hours preincubation, ATP 1000 μM
Method: The phosphorylation activity on the peptide substrate of EGFR was investigated using LabChip (trademark) Systems (Caliper Life Sciences, Inc.). […] (Carna Biosciences, Inc.) was used. […] Then, the substrate and the ATP solution were added thereto, followed by reaction for 1 hour. An ATP concentration of 1000 μM was used. A reaction liquid containing the enzyme protein but no test compound (in which the DMSO alone was added as a solvent at 0.4% in place of the test compound) was prepared, followed by reaction in the same manner with or without ATP addition. […] The concentration causing 50% inhibition (IC50) was calculated for the test compound by a logistic regression method.

[1] = system: Ba/F3 cells expressing EGFR T790M/L858R mutation kinase; assay: Inhibition of EGFR T790M/L858R mutation kinase-dependent cell proliferation (Cell Titer-Glo); assay type: cell-based; conditions: Mus musculus, BaF3, 48 h, cultured 2 days
Method: (§1) In a 96-well plate (Iwaki), Ba/F3 cells were seeded at 500 cells per well in an RPMI1640 medium (Invitrogen) containing 10% fetal bovine serum, followed by the addition of the test compound (final concentrations ranging from 1 μM to 0.1 nM) and DMSO which was a solvent of the test compound as a negative control. In the presence of 5% CO2, the cells were cultured at 37° C. for 2 days. A cell counting reagent (Cell Titer-Glo; Promega) was added thereto, and the light emitting intensity was measured using a luminometer (Envison or ARVO; PerkinElmer Inc.). […] The inhibitory rate of the test compound was calculated and the concentration causing 50% inhibition (IC50 value) was determined by a logistic regression method.

[2] = system: Ba/F3 cells expressing EGFR T790M/del19 mutation kinase; assay: Inhibition of EGFR T790M/del19 mutation kinase-dependent cell proliferation (Cell Titer-Glo); assay type: cell-based; conditions: Mus musculus, BaF3, 48 h; Ba/F3 cells expressing EGFR T790M/del19, cultured 2 days
Method: as §1

[3] = system: H1975 cells (EGFR T790M mutation-expressing) subcutaneous tumor; assay: Anti-tumor test on EGFR T790M mutation-expressing H1975 cell cancer-bearing mice; assay type: in vivo; conditions: Mus musculus, NCI-H1975, 336 h; H1975 cancer-bearing nude mice, oral 10 mg/kg once a day for 14 days; read-out: inhibitory rate (tumor volume)
Method: 3×10^6 Cells of H1975 suspended in PBS were inoculated subcutaneously by injection to the back of 5-week old male […] nude mice (Charles River Laboratories Japan, Inc.). After 10 days of the inoculation, the administration of the test compound was initiated. The test was carried out in the solvent group and the test compound groups, with 5 animals per group. The test compounds were each mixed in a solvent of 0.5% aqueous methyl cellulose solution or a mixed solvent of polyethyleneglycol:N-methylpyrrolidone=90:10, and administered orally at a dose of 10 mg/kg. Administrations were performed once a day for 14 days, and the body weight and the tumor diameter were measured roughly every other day. The tumor volume was calculated using the following formula. [Tumor volume (mm^3)]=[Tumor major axis (mm)]×[Tumor minor axis (mm)]^2×0.5

Chain of EGFR [T790M/L858R] (P00533 25-1210 T790M/L858R): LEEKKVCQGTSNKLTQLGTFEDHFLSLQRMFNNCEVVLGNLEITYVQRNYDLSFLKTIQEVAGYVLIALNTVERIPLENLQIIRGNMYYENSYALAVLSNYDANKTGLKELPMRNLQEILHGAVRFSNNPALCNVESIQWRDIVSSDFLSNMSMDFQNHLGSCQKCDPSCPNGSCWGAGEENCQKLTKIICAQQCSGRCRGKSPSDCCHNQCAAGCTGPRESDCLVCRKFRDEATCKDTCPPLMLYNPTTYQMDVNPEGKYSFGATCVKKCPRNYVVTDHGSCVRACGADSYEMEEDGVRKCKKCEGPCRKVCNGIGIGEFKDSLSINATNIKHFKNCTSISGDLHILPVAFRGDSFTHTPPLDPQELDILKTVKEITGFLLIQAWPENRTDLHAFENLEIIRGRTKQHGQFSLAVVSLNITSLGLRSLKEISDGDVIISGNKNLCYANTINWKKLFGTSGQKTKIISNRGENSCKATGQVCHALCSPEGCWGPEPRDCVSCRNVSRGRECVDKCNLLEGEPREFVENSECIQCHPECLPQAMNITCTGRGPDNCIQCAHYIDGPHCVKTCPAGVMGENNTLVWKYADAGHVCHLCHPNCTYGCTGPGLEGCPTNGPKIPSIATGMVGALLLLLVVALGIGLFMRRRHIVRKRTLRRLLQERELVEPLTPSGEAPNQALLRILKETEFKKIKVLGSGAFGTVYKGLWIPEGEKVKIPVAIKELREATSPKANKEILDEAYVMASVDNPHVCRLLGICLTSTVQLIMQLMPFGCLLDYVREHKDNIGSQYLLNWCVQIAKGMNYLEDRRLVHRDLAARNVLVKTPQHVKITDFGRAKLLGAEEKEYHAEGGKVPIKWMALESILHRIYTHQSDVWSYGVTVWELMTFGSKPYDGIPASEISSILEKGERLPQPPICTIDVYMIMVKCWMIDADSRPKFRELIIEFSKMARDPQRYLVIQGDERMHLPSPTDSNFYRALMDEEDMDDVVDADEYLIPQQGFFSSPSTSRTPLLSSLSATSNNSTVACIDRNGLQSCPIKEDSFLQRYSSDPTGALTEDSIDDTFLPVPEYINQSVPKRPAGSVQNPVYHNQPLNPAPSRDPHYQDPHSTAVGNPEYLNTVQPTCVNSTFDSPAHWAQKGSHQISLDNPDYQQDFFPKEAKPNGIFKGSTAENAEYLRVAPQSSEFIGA

SMILES	pIC50 (EGFR [T790M/L858R])	pIC50 [1]	pIC50 [2]	inhibition in vivo at 10 mg/kg [3]
C=CC(=O)Nc1cccc(Oc2nc(Nc3ccc(N4CCN(C)CC4)cc3)c(C(N)=O)nc2CC)c1 [Example 1, 5-[3-(acryloylamino)phenoxy]-6-ethyl-3-{[4-(4-methylpiperazin-1-yl)phenyl]amino}pyrazine-2-carboxamide]	8.89	8.66	8.85	24%
CCc1nc(C(N)=O)c(Nc2ccc(N3CCN(C)CC3)cc2)nc1Oc1cccc(NC(=O)/C=C/CN(C)C)c1 [Example 3, 5-(3-{[(2E)-4-(dimethylamino)buta-2-enoyl]amino}phenoxy)-6-ethyl-3-{[4-(4-methylpiperazin-1-yl)phenyl]amino}pyrazine-2-carboxamide]	8.85	7.77	8.06	
C=CC(=O)Nc1cccc(Oc2nc(Nc3ccc(N4CCN(C)CC4)cc3)c(C(N)=O)nc2CC)c1C [Example 15]	8.92	8.96	9.11	41%
C=CC(=O)N1CCC(c2nc(Nc3ccc(N4CCC(N5CCN(C)CC5)CC4)c(C)c3)c(C(N)=O)nc2CC)CC1 [Example 24]			9.32	100%
C=CC(=O)Nc1cccc(Oc2cnc(C(N)=O)c(Nc3ccc(N4CCN(C)CC4)cc3)n2)c1 [Example 26]	8.96	9.04	9.28	
C=CC(=O)Nc1cccc(Oc2nc(Nc3ccc(OC)c(N4CCN(C)CC4)c3)c(C(N)=O)nc2CC)c1 [Example 42]	8.92	8.85	8.89	
C=CC(=O)Nc1cccc(Oc2nc(Nc3ccc(N4CCN(CC)CC4)cc3)c(C(N)=O)nc2CC)c1 [Example 43]			9.29	
C=CC(=O)N1CC[C@@H](Oc2nc(Nc3ccc(N4CCC(N5CCN(C)CC5)CC4)cc3)c(C(N)=O)nc2CC)C1 [Example 54]	8.77	8.35	8.49	74%
C=CC(=O)Nc1cccc(Oc2nc(Nc3cnn(C4CCN(C)CC4)c3)c(C(N)=O)nc2C(C)C)c1 [Example 56]	8.89	8.70	8.80	
C=CC(=O)Nc1cccc(Oc2nc(Nc3ccc(N4CCN(C)[C@@H](C)C4)cc3)c(C(N)=O)nc2CC)c1 [Example 63]			9.18	
C=CC(=O)Nc1cccc(Oc2nc(Nc3ccc(N4CCN(C)[C@H](C)C4)cc3)c(C(N)=O)nc2CC)c1 [Example 64]			9.38	28%
C=CC(=O)N1CCC[C@@H](Oc2nc(Nc3ccc(N4CCC(N5CCN(C)CC5)CC4)cc3)c(C(N)=O)nc2CC)C1 [Example 79]	8.89			30%
C=CC(=O)N1CCC[C@@H](Oc2nc(Nc3ccc(N4CCC(N5CCN(C)CC5)CC4)c(C)c3)c(C(N)=O)nc2CC)C1 [Example 80]	8.92			27%
C=CC(=O)Nc1ccc(F)c(Oc2nc(Nc3ccc(N4CCN(C)CC4)cc3)c(C(N)=O)nc2CC)c1 [Example 82]	8.82			84%
